Laboratory results reported in patent US10570122B2, “Compounds with anti-tumoral activity” (AB Science, priority 2015, dated 2020).

How the values were obtained:
BXPC3 = test: CellTiter-Blue cell-based survival/proliferation assay, BXPC3; details: Homo sapiens, BXPC-3; BXPC3 pancreas tumor cell line, 48 h
Procedure: (§1) Cell-Based Proliferation Screening of Compounds
(§2) CellTiter-Blue cell-based survival/proliferation assay (Promega G8080) was performed on tumor cell lines. A total of 1·10^4 cells/well/50 μl were seeded in a 96-wells plate. Treatment was initiated by addition of a 2× drug solution of 1/10 serial dilutions ranging from 0 to 10 μM. Cells were grown for 48 h at 37° C. and then incubated with 10 μl/well of Promega CellTiter-Bleue reagent for 4 h at 37° C. The amount of resorufin dye formed was quantified by its fluorescence emission at 590 nm using a scanning multiwell spectrophotometer (OPTIMA, BMG labtech, France). A blank well without cells was used as a background control for the spectrophotometer.

TOV112D = test: CellTiter-Blue cell-based survival/proliferation assay, TOV112D; details: Homo sapiens; TOV112D ovary tumor cell line, 48 h
Procedure: as §1, §2

DLD1 = test: CellTiter-Blue cell-based survival/proliferation assay, DLD1; details: Homo sapiens, DLD-1; DLD_1 colorectal tumor cell line, 48 h
Procedure: as §1, §2

MDAMB231 = test: CellTiter-Blue cell-based survival/proliferation assay, MDAMB231; details: Homo sapiens, MDA-MB-231; MDAMB231 breast tumor cell line, 48 h
Procedure: as §1, §2

SW579 = test: CellTiter-Blue cell-based survival/proliferation assay, SW579; details: Homo sapiens; SW579 head & neck tumor cell line, 48 h
Procedure: as §1, §2

PLCPRF5 = test: CellTiter-Blue cell-based survival/proliferation assay, PLCPRF5; details: Homo sapiens, PLC-PRF-5; PLC_PRF5 liver tumor cell line, 48 h
Procedure: as §1, §2

A498 = test: CellTiter-Blue cell-based survival/proliferation assay, A498; details: Homo sapiens; A498 kidney tumor cell line, 48 h
Procedure: as §1, §2

HEPG2 = test: CellTiter-Blue cell-based survival/proliferation assay, HEPG2; details: Homo sapiens; HEPG2 liver tumor cell line, 48 h
Procedure: as §1, §2

ACHN = test: CellTiter-Blue cell-based survival/proliferation assay, ACHN; details: Homo sapiens; ACHN kidney tumor cell line, 48 h
Procedure: as §1, §2

HEP2 = test: CellTiter-Blue cell-based survival/proliferation assay, HEP2; details: Homo sapiens, HEp-2; HEP2 head & neck tumor cell line, 48 h
Procedure: as §1, §2

CALU6 = test: CellTiter-Blue cell-based survival/proliferation assay, CALU6; details: Homo sapiens, Calu-6; CALU6 lung tumor cell line, 48 h
Procedure: as §1, §2

DU145 = test: CellTiter-Blue cell-based survival/proliferation assay, DU145; details: Homo sapiens, DU-145; DU145 prostate tumor cell line, 48 h
Procedure: as §1, §2

PC3 = test: CellTiter-Blue cell-based survival/proliferation assay, PC3; details: Homo sapiens, PC-3; PC3 prostate tumor cell line, 48 h
Procedure: as §1, §2

[1] = test system: panel of about 34 human tumor cell lines; test: Cell-based proliferation screening on panel of tumor cell lines; details: solid tumor cell line, cell line unknown, 48 h, read-out: IC50, solid tumor cell line of column 6 (last section of Table 3)
Procedure: Compounds of formula (I) were tested against a panel of about 34 human tumor cell lines representing 17 cancer type, namely leukemia (represented by 1 cell line), lymphoma (4 cell lines), myeloma (1 cell line), colorectal (2 cell lines), head and neck (3 cell lines), lung (3 cell lines), melanoma (2 cell lines), pancreas (2 cell lines), prostate (2 cell lines), ovary (2 cell lines) breast (2 cell lines), kidney (2 cell lines), stomach (2 cell lines), liver (2 cell lines), glioblastoma (2 cell lines), osteosarcoma (1 cell line), Ewing Sarcoma (1 cell line).
as §1, §2

HL60 = test: CellTiter-Blue cell-based survival/proliferation assay, HL60; details: Homo sapiens, HL-60, Leukemia cell line HL60, 48 h, read-out: Anti-tumoral activity (measured IC50) HL60
Procedure: as §1, §2

BT20 = test: CellTiter-Blue cell-based survival/proliferation assay, BT20; details: Homo sapiens, BT-20; BT20 breast tumor cell line, 48 h
Procedure: as §1, §2

HGC27 = test: CellTiter-Blue cell-based survival/proliferation assay, HGC27; details: Homo sapiens, HGC-27; HGC27 stomach tumor cell line, 48 h
Procedure: as §1, §2

OPM2 = test: CellTiter-Blue cell-based survival/proliferation assay, OPM2; details: Homo sapiens, OPM-2, Myeloma cell line OPM2, 48 h, read-out: Anti-tumoral activity (measured IC50) OPM2
Procedure: as §1, §2

HCT116 = test: CellTiter-Blue cell-based survival/proliferation assay, HCT116; details: Homo sapiens, HCT-116; HCT116 colorectal tumor cell line, 48 h
Procedure: as §1, §2

A549 = test: CellTiter-Blue cell-based survival/proliferation assay, A549; details: Homo sapiens; A549 lung tumor cell line, 48 h
Procedure: as §1, §2

PANC1 = test: CellTiter-Blue cell-based survival/proliferation assay, PANC1; details: Homo sapiens, PANC-1; PANC_1 pancreas tumor cell line, 48 h
Procedure: as §1, §2

H1299 = test: CellTiter-Blue cell-based survival/proliferation assay, H1299; details: Homo sapiens, NCI-H1299; H1299 lung tumor cell line, 48 h
Procedure: as §1, §2

CLS354 = test: CellTiter-Blue cell-based survival/proliferation assay, CLS354; details: Homo sapiens, CLS-354; CLS354_4 head & neck tumor cell line, 48 h
Procedure: as §1, §2

MESSA = test: CellTiter-Blue cell-based survival/proliferation assay, MESSA; details: Homo sapiens, MES-SA; MESSA ovary tumor cell line, 48 h
Procedure: as §1, §2

AGS = test: CellTiter-Blue cell-based survival/proliferation assay, AGS; details: Homo sapiens; AGS stomach tumor cell line, 48 h
Procedure: as §1, §2

| Structure (SMILES) | IC50 (BXPC3) | IC50 (TOV112D) | IC50 (DLD1) | IC50 (MDAMB231) | IC50 (SW579) | IC50 (PLCPRF5) | IC50 (A498) | IC50 (HEPG2) | IC50 (ACHN) | IC50 (HEP2) | IC50 (CALU6) | IC50 (DU145) | IC50 (PC3) | IC50 [1] | IC50 (HL60) | IC50 (BT20) | IC50 (HGC27) | IC50 (OPM2) | IC50 (HCT116) | IC50 (A549) | also measured |
| --- | --- | --- | --- | --- | --- | --- | --- | --- | --- | --- | --- | --- | --- | --- | --- | --- | --- | --- | --- | --- | --- |
| CCOCc1ccc(C)c(Nc2ncc(-c3ccc(N4CCN(CCOC)C4=O)cc3)o2)c1 [Example 054, 1-(4-(2-((5-(ethoxymethyl)-2-methylphenyl)amino)oxazol-5-yl)phenyl)-3-(2-methoxyethyl)imidazolidin-2-one] | > 1000 nM | > 1000 nM | > 1000 nM | > 1000 nM | > 1000 nM | > 1000 nM | > 1000 nM | > 1000 nM | > 1000 nM | > 1000 nM | > 1000 nM | > 1000 nM | > 1000 nM | > 1000 nM | > 1000 nM | > 1000 nM | > 1000 nM | > 1000 nM | > 1000 nM | > 1000 nM | IC50 (PANC1): > 1000 nM; IC50 (H1299): > 1000 nM; IC50 (CLS354): > 1000 nM; IC50 (MESSA): > 1000 nM; IC50 (AGS): > 1000 nM |
| CCOCc1ccc(C)c(Nc2ncc(-c3ccc(-n4nccc4C)cc3)o2)c1 [Example 041, (5-Ethoxymethyl-2-methyl-phenyl)-{5-[4-(5-methyl-pyrazol-1-yl)-phenyl]-oxazol-2-yl}-amine] | > 1000 nM | 100 to 500 nM | > 1000 nM | > 1000 nM | > 1000 nM | > 1000 nM | > 1000 nM | > 1000 nM | > 1000 nM | > 1000 nM | > 1000 nM | > 1000 nM | > 1000 nM | 100 to 500 nM | 500 to 1000 nM | > 1000 nM | > 1000 nM | 500 to 1000 nM | > 1000 nM | > 1000 nM | IC50 (PANC1): > 1000 nM; IC50 (H1299): > 1000 nM; IC50 (CLS354): > 1000 nM; IC50 (MESSA): > 1000 nM; IC50 (AGS): > 1000 nM |
| CCOCc1cc(Nc2ncc(-c3ccc(N4CCNC4=O)cc3)o2)cc(OCCO)c1 [Example 059, 1-(4-(2-((3-(ethoxymethyl)-5-(2-hydroxyethoxy)phenyl)amino)oxazol-5-yl)phenyl)imidazolidin-2-one] | 500 to 1000 nM | ≤ 100 nM | > 1000 nM | > 1000 nM | ≤ 100 nM | > 1000 nM | > 1000 nM | > 1000 nM | > 1000 nM | ≤ 100 nM | > 1000 nM | > 1000 nM | ≤ 100 nM | ≤ 100 nM | ≤ 100 nM | > 1000 nM | > 1000 nM | ≤ 100 nM | ≤ 100 nM | > 1000 nM | IC50 (PANC1): > 1000 nM; IC50 (H1299): > 1000 nM; IC50 (CLS354): ≤ 100 nM; IC50 (MESSA): > 1000 nM; IC50 (AGS): > 1000 nM |
| CCOCc1ccc(C)c(Nc2ncc(-c3ccc(-n4c(C)n[nH]c4=O)cc3)o2)c1 [Example 052, 4-(4-(2-((5-(ethoxymethyl)-2-methylphenyl)amino)oxazol-5-yl)phenyl)-5-methyl-2,4-dihydro-3H-1,2,4-triazol-3-one] | > 1000 nM | > 1000 nM | > 1000 nM | > 1000 nM | > 1000 nM | > 1000 nM | > 1000 nM | > 1000 nM | > 1000 nM | > 1000 nM | > 1000 nM | > 1000 nM | > 1000 nM | > 1000 nM | > 1000 nM | > 1000 nM | > 1000 nM | > 1000 nM | > 1000 nM | > 1000 nM | IC50 (PANC1): > 1000 nM; IC50 (H1299): > 1000 nM; IC50 (CLS354): > 1000 nM; IC50 (MESSA): > 1000 nM; IC50 (AGS): > 1000 nM |
| CCOCc1ccc(C)c(Nc2ncc(-c3ccc(-c4ccnn4C)cc3)o2)c1 [Example 061, N-(5-(ethoxymethyl)-2-methylphenyl)-5-(4-(1-methyl-1H-pyrazol-5-yl)phenyl)oxazol-2-amine] | > 1000 nM | > 1000 nM | > 1000 nM | > 1000 nM | > 1000 nM | > 1000 nM | > 1000 nM | > 1000 nM | > 1000 nM | > 1000 nM | > 1000 nM | > 1000 nM | > 1000 nM | > 1000 nM | > 1000 nM | > 1000 nM | > 1000 nM | > 1000 nM | > 1000 nM | > 1000 nM | IC50 (PANC1): > 1000 nM; IC50 (H1299): > 1000 nM; IC50 (CLS354): > 1000 nM; IC50 (MESSA): > 1000 nM; IC50 (AGS): > 1000 nM |
